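Cells were grown in 96-well plates and exposed to each compound for 48 hours at five concentrations; endpoints were interpolated linearly between bracketing concentrations, or set to the highest concentration if not reached. The concentration for 50% growth inhibition is given as GI50. At the TGI there is no net growth.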
How the values were obtained:
Assay in all cases: inhibition of tumour cell growth, NCI panel, 48 h
[1] = tested on: NCI-H226 lung
[2] = tested on: EKVX NSCLC
[3] = tested on: HS 578T breast
[4] = tested on: U251 CNS
[5] = tested on: ACHN renal
[6] = tested on: BT-549 breast
[7] = tested on: SR leukemia
[8] = tested on: SW-620 colon
[9] = tested on: UO-31 renal
[10] = tested on: TK-10 renal
[11] = tested on: OVCAR-8 ovarian
[12] = tested on: SNB-75 CNS
[13] = tested on: COLO 205 colon
[14] = tested on: A549 NSCLC
[15] = tested on: MALME-3M melanoma
[16] = tested on: LOX IMVI melanoma
[17] = tested on: NCI/ADR-RES ovarian
[18] = tested on: NCI-H522 lung
[19] = tested on: PC-3 prostate
[20] = tested on: RXF 393 renal
[21] = tested on: SK-MEL-5 melanoma
[22] = tested on: A498 renal
[23] = tested on: 786-0 renal
[24] = tested on: IGROV1 ovarian
[25] = tested on: HCC-2998 colon
[26] = tested on: HCT-116 colon
[27] = tested on: HCT-15 colon
[28] = tested on: HT29 colon
[29] = tested on: RPMI-8226 leukemia
[30] = tested on: SNB-19 CNS
[31] = tested on: DU-145 prostate
[32] = tested on: NCI-H23 lung
[33] = tested on: KM12 colon
[34] = tested on: UACC-62 melanoma
[35] = tested on: T-47D breast
[36] = tested on: MCF7 breast
[37] = tested on: HOP-92 NSCLC
[38] = tested on: NCI-H460 lung
[39] = tested on: SN12C renal
[40] = tested on: MDA-MB-231 breast
[41] = tested on: MDA-MB-435
[42] = tested on: UACC-257 melanoma
[43] = tested on: SK-MEL-28 melanoma
[44] = tested on: SF-295 CNS
[45] = tested on: CCRF-CEM leukemia
[46] = tested on: OVCAR-4 ovarian
[47] = tested on: MOLT-4 leukemia
[48] = tested on: SF-268 CNS
[49] = tested on: OVCAR-5 ovarian
[50] = tested on: SK-MEL-2 melanoma
[51] = tested on: HOP-62 NSCLC
[52] = tested on: M14 melanoma
[53] = tested on: K-562 leukemia
[54] = tested on: SF-539 CNS
[55] = tested on: OVCAR-3 ovarian
[56] = tested on: SK-OV-3 ovarian
[57] = tested on: CAKI-1 renal

O=C1NC(=C(Cl)Cl)/C(=N/S(=O)(=O)N2CCCCC2CC2(C(F)(F)F)N=N2)N1 (centres undefined)
GI50 [1]: 15.5 µM
TGI [1]: 44.4 µM
GI50 [2]: 2.04 µM
TGI [2]: 4.33 µM
GI50 [3]: 2.83 µM
TGI [3]: 9.84 µM
GI50 [4]: 1.86 µM
TGI [4]: 3.67 µM
GI50 [5]: 1.74 µM
TGI [5]: 3.12 µM
GI50 [6]: 1.89 µM
TGI [6]: 3.67 µM
GI50 [7]: 0.431 µM
TGI [7]: 2.67 µM
GI50 [8]: 1.67 µM
TGI [8]: 3.24 µM
GI50 [9]: 2.69 µM
TGI [9]: 12.4 µM
GI50 [10]: 4.53 µM
TGI [10]: 14.2 µM
GI50 [11]: 2.21 µM
TGI [11]: 5.17 µM
GI50 [12]: 3.5 µM
TGI [12]: 17.4 µM
GI50 [13]: 1.89 µM
TGI [13]: 3.68 µM
GI50 [14]: 3.72 µM
TGI [14]: 14 µM
GI50 [15]: 1.57 µM
TGI [15]: 2.99 µM
GI50 [16]: 0.43 µM
TGI [16]: 1.58 µM
GI50 [17]: 3.45 µM
TGI [17]: 15.4 µM
GI50 [18]: 1.54 µM
TGI [18]: 3.13 µM
GI50 [19]: 2.26 µM
TGI [19]: 6.37 µM
GI50 [20]: 1.67 µM
TGI [20]: 3.22 µM
GI50 [21]: 2.4 µM
TGI [21]: 5.93 µM
GI50 [22]: 11.4 µM
TGI [22]: 24.1 µM
GI50 [23]: 3.2 µM
TGI [23]: 9.62 µM
GI50 [24]: 1.58 µM
TGI [24]: 3.09 µM
GI50 [25]: 1.86 µM
TGI [25]: 3.38 µM
GI50 [26]: 1.73 µM
TGI [26]: 3.26 µM
GI50 [27]: 0.398 µM
TGI [27]: 1.5 µM
GI50 [28]: 1.88 µM
TGI [28]: 3.61 µM
GI50 [29]: 0.385 µM
TGI [29]: 8.08 µM
GI50 [30]: 2 µM
TGI [30]: 4.53 µM
GI50 [31]: 3.47 µM
TGI [31]: 11.8 µM
GI50 [32]: 1.71 µM
TGI [32]: 3.77 µM
GI50 [33]: 3.14 µM
TGI [33]: 12.2 µM
GI50 [34]: 1.74 µM
TGI [34]: 3.57 µM
GI50 [35]: 4.16 µM
TGI [35]: 22.1 µM
GI50 [36]: 0.769 µM
TGI [36]: 11.8 µM
GI50 [37]: 1.73 µM
TGI [37]: 3.61 µM
GI50 [38]: 3.06 µM
TGI [38]: 10.7 µM
GI50 [39]: 1.29 µM
TGI [39]: 2.57 µM
GI50 [40]: 1.73 µM
TGI [40]: 3.44 µM
GI50 [41]: 2.24 µM
TGI [41]: 5.38 µM
GI50 [42]: 1.96 µM
TGI [42]: 4.48 µM
GI50 [43]: 1.85 µM
TGI [43]: 3.33 µM
GI50 [44]: 3.23 µM
TGI [44]: 12.1 µM
GI50 [45]: 1.99 µM
TGI [45]: 5.57 µM
GI50 [46]: 1.76 µM
TGI [46]: 3.2 µM
GI50 [47]: 1.68 µM
TGI [47]: 4.43 µM
GI50 [48]: 3.35 µM
TGI [48]: 13.1 µM
GI50 [49]: 1.9 µM
TGI [49]: 3.84 µM
GI50 [50]: 1.86 µM
TGI [50]: 3.9 µM
GI50 [51]: 3.22 µM
TGI [51]: 13.5 µM
GI50 [52]: 1.85 µM
TGI [52]: 3.93 µM
GI50 [53]: 0.628 µM
TGI [53]: 10.8 µM
GI50 [54]: 1.79 µM
TGI [54]: 3.56 µM
GI50 [55]: 2.05 µM
TGI [55]: 4.13 µM
GI50 [56]: 15.1 µM
TGI [56]: 29.8 µM
GI50 [57]: 1.7 µM
TGI [57]: 3.09 µM

— PubChem BioAssay (NCI)
